Patent US10280198B2, “Therapeutic agents for reducing parathyroid hormone levels” (KAI PHARMACEUTICALS, INC., priority 2009, dated 2019)
Entries after “also recorded” stand apart in the source; their conditions may differ.

Tests used:
[1] = test system: plasma histamine; conditions: rat, in vivo
[2] = test system: plasma PTH; test: In vivo PTH lowering after IV bolus in isoflurane-anesthetized normal Sprague Dawley rats; design: species or system rat; conditions: for PTH-lowering activity in normal rats: 0.5 mg/kg single IV administration
Method in brief: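 Peptides were given as a 0.5 mg/kg IV bolus to normal Sprague Dawley rats kept under isoflurane throughout, with saline bolus controls.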

[3] = test system: plasma histamine; conditions: rat
Description: For the in vivo evaluation of histamine release, compounds were dosed in isoflurane-anesthetized normal rats at 2 mg/kg by IV bolus (administered over less than one minute). Plasma histamine was measured 5 minutes after compound administration (Cayman histamine EIA #589651).

[4] = test system: plasma PTH; test: Micropore-facilitated transdermal delivery, plasma PTH in rats; conditions: CD hairless rats, derma roller microporation, 10% solution in reservoir, FIG. 11
[5] = test system: rat peritoneal mast cells; test: In vitro histamine induction in rat peritoneal mast cells; format: cell-based
Method in brief: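 Mast cells from peritoneal lavage of Sprague Dawley rats were incubated with compound at 10 μM for 15 min at 37 °C in HBSS + 25 mM HEPES pH 7.4. Supernatant histamine measured by EIA; response expressed as fold change versus pre-incubation levels.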

fold increase in histamine level relative to pre-dose [1] [fold] | Histamine response in vivo Fold change from pre-dose levels 5′ post injection 2 mg/kg IV bolus [3] [fold] | Histamine in vitro Fold change of non-treated at 10 uM [5] [fold] | SMILES | histamine response after IV bolus ([1]; iv) | duration of decreased PTH ([2]; 0.5 mg/kg IV bolus, normal rats, FIG. 5) | PTH-lowering activity in normal rats [2] | % PTH reduction of baseline at 1 hour post IV admin. of 0.5 mg/kg compound ([2]; Table 1, isoflurane-anesthetized normal rats, 0.5 mg/kg IV, 1 hour) [%] | 0.5 mg/kg IV bolus % PTH AUC of saline control ([2]; Table 1, normal rats, PTH at 1, 2, 3, 4 h, AUCcmpd treated/AUCsaline control*100) [%] | 0.5 mg/kg IV bolus % PTH AUC of saline control ([2]; Table 3, normal rats, AUC 1-4 h) [%] | duration of PTH reduction from baseline [4] [h] | % PTH reduction of baseline at 1 hour post IV administration of 0.5 mg/kg compound ([2]; Table 2, isoflurane-anesthetized normal rats, 0.5 mg/kg IV, 1 hour) [%] | 0.5 mg/kg IV bolus % PTH AUC of saline control ([2]; Table 2, normal rats, AUC 1-4 h) [%]
7 | 2.7 | 11.5 | CC(=O)N[C@H](CS)C(=O)N[C@H](CCCNC(=N)N)C(=O)N[C@H](CCCNC(=N)N)C(=O)N[C@H](CCCNC(=N)N)C(=O)N[C@H](CCCNC(=N)N)C(=O)N[C@H](CCCNC(=N)N)C(=O)N[C@H](CCCNC(=N)N)C(N)=O [SEQ ID NO: 6, Ac-crrrrrr-NH2] | returned to baseline levels 15 minutes later | at least four hours | below the detection limit or essentially zero | 4 | 0 | 3 | ~4 | – | –
– | 1.0 | 1.4 | CC(=O)N[C@H](CS)C(=O)N[C@H](C)C(=O)N[C@H](CCCNC(=N)N)C(=O)N[C@H](CCCNC(=N)N)C(=O)N[C@H](CCCNC(=N)N)C(=O)N[C@H](C)C(=O)N[C@H](CCCNC(=N)N)C(N)=O [SEQ ID NO: 26, Ac-carrrar-NH2] | – | – | decreased PTH blood concentration to a non-detectable level for up to 4 hours after dosing; also recorded: very active | – | – | – | – | 0 | 1
